Patent publication US4083994A, “Choleretics” (Hisamitsu Pharmaceutical Co., Inc., priority 1975, dated 1978)

Assays:
[1] = tested on: bile secretion; experiment: Bile secretion test in rats; type: in vivo, male Wistar rats; details: rat, oral, volume in 1 h before administration = 100%
Procedure: Male Wistar rats weighing 200-210 g were fasted overnight and laparotomized under urethane anesthesia(Subcutaneous injection at a dose of 1.5 g/kg). A polyethylene tube was inserted into the common bile duct. The bile was collected for one hour from 30 minutes after the operation. Subsequently, the animals were given orally the test drugs, each 50 mg of which was suspended in 1 ml of 5% gum arabic aqueous solution. The bile was collected for 5 hours after the drug administration. The volume of the bile secreted at hourly intervals after the drug administration was expressed in %, defining the volume secreted for one hour before the drug administration as 100%, as shown in Table 1.
About 500 mg of p-menth-1-ene-8,9-diol were weighed accurately, and suspended in 10 ml of 5% gum arabic aqueous solution. […] Male rats of Wistar strain weighing 200 g were fasted overnight, anesthetized by subcutanous injection of 0.3 g of urethane and laparotomized. A polyethylene tube was inserted into the common bile duct. The bile was collected for one hour from 30 minutes after the operation. […]
About 500 mg of 9-acetoxy-p-menth-1-en-8-ol was weighed accurately and suspended in 10ml of 5% gum arabic aqueous solution. […] Male rats of Wistar strain weighing about 210 g were fasted overnight and anesthetized by subcutaneous injection of 0.32 g of urethane and then laparotomized. A polyethylene tube was inserted into the common bile duct, and the bile secreted through the duct was collected for one hour from 30 minutes after the operation. Subsequently, the choleretic of the present invention was administered orally in a volume of 1.05 ml (250 mg/kg).

[2] = tested on: bile secretion; experiment: Bile secretion test in dogs; type: in vivo, male mongrel dogs; details: into duodenum; for Bile volume secreted after administration: dog, volume in 1 h before administration = 100%; for Volume of bile secreted relative to one hour before administration: one dog (7.6 kg)
Procedure: Male mongrel dogs weighing approximately 8 kg were anesthetized with intravenous injection of […] of pentobarbital and further with subcutaneous injection of urethane at a dose of 1.0 g/kg and laparotomized. One canula was inserted into the common bile duct and directed to the liver for collection of the bile, and the other canula was inserted into the duodenum for the drug administration. The cholecystic duct was ligated and the gallbladder bile was aspirated with an injection syringe. The operation was finished by suture of the peritoneum. The bile was collected for one hour from 30 minutes after the operation. The animals were given the test drugs, each 50 mg of which was suspended in 1 ml of 5% gum arabic aqueous solution, through the canula for the drug administration. The bile was collected at hourly intervals for 6 hours after the drug administration. Defining the volume of the bile secreted for one hour before the drug administration as 100%, the volume secreted at hourly intervals after the drug administration was expressed in %, as shown in Table 2.
The mean volume secreted for one hour before the drug administration was 1798 μl.
This suspension was used as a choleretic of the present invention. A male mongrel dog weighing 8.8 kg was fasted overnight and anesthetized by subcutaneous injection of 1.0 mg/kg of urethane and laparotomized. One canula was inserted into the common bile duct and directed to the liver for collection of the bile, and the other canula was also inserted into the duodenum for the drug administration. Subsequently, the cholecystic duct was ligated and the gallbladder bile was aspirated with an injection syringe. The operation was finished after suturing the peritoneum. The bile was collected for one hour from 30 minutes after the operation, and subsequently, 44 ml of the test drug prepared above (250 mg/kg) was given through the canula for the drug administration. The volume of the bile secreted for the first, second and third one hour after the drug administration were 2.2, 2.1 and 1.9 times larger, respectively, than that secreted for one hour before the drug administration.
About 2.5 g of 9-propionyloxy-p-menth-1-en-8-ol was weighed accurately and suspended in 50 ml of 5% gum arabic aqueous solution. This suspension was used as a choleretic of the present invention. A male mongrel dog weighing 7.6 kg was fasted overnight and anesthetized by subcutaneous injection of 1.0 mg/kg of urethane and then laparotomized. One canula was inserted into the common bile duct and directed to the liver for collection of the bile, and the other canula into the duodenum for the drug administration. Subsequently, the cholecystic duct was ligated and the gallbladder bile was aspirated with an injection syringe. The operation was finished by suturing the peritoneum. The bile was collected for one hour from 30 minutes after the operation, and 50 ml (330 mg/kg) of the test drug prepared above was administered through the canula for the drug administration. The volume of the bile secreted for the first, second and third one hour after the drug administration was 3.2, 5.0 and 4.7 times larger, respectively, than that secreted for one hour before the drug administration.

[3] = Acute toxicity test in mice; details: mouse, in vivo, oral, parentheses: 95% confidence limit
Procedure: The test drugs were suspended in 5% gum arabic aqueous solution to make 50 mg/ml, and given orally male mice of ddY strain weighing 18-22 g and male rats of Wistar strain weighing 95-120 g. The LD50 values were calculated from the mortality of the animals that ensued during the 72 hours following the drug administration

CCC(O)c1ccccc1 (racemic) [Felicur, phenylpropanol, reference compound]
Bile volume secreted after administration ([1]; 250 mg/kg, 0-1 hr): 204% | Bile volume secreted after administration ([1]; 250 mg/kg, 1-2 hr): 172% | Bile volume secreted after administration ([1]; 250 mg/kg, 2-3 hr): 138% | Bile volume secreted after administration ([1]; 250 mg/kg, 3-4 hr): 108% | Bile volume secreted after administration ([1]; 250 mg/kg, 4-5 hr): 88% | Bile volume secreted after administration ([2]; 50 mg/kg, 0-1 hr): 231% | Bile volume secreted after administration ([2]; 50 mg/kg, 1-2 hr): 230% | Bile volume secreted after administration ([2]; 50 mg/kg, 2-3 hr): 188% | Bile volume secreted after administration ([2]; 50 mg/kg, 3-4 hr): 147%

CC(C)[C@@H]1CC[C@@H](C)C[C@H]1O [1-Menthol, 1-menthol, reference compound]
Bile volume secreted after administration ([1]; 80 mg/kg, 0-1 hr): 134% | Bile volume secreted after administration ([1]; 80 mg/kg, 1-2 hr): 114% | Bile volume secreted after administration ([1]; 80 mg/kg, 2-3 hr): 100% | Bile volume secreted after administration ([1]; 80 mg/kg, 3-4 hr): 95% | Bile volume secreted after administration ([1]; 80 mg/kg, 4-5 hr): 89% | Bile volume secreted after administration ([1]; 230 mg/kg, 0-1 hr): 139% | Bile volume secreted after administration ([1]; 230 mg/kg, 1-2 hr): 137% | Bile volume secreted after administration ([1]; 230 mg/kg, 2-3 hr): 133% | Bile volume secreted after administration ([1]; 230 mg/kg, 3-4 hr): 117% | Bile volume secreted after administration ([1]; 230 mg/kg, 4-5 hr): 111% | Bile volume secreted after administration ([1]; 750 mg/kg, 0-1 hr): 152% | Bile volume secreted after administration ([1]; 750 mg/kg, 1-2 hr): 143% | Bile volume secreted after administration ([1]; 750 mg/kg, 2-3 hr): 138% | Bile volume secreted after administration ([1]; 750 mg/kg, 3-4 hr): 122% | Bile volume secreted after administration ([1]; 750 mg/kg, 4-5 hr): 111%

CCC(=O)OCC(C)(O)C1CC=C(C)CC1 (stereo not drawn) [9-Propionyloxy-p-menth-1-en-8-ol, 9-propionyloxy-p-menth-1-en-8-ol]
Bile volume secreted after administration ([1]; 110 mg/kg, 0-1 hr): 135% | Bile volume secreted after administration ([1]; 110 mg/kg, 1-2 hr): 117% | Bile volume secreted after administration ([1]; 110 mg/kg, 2-3 hr): 100% | Bile volume secreted after administration ([1]; 110 mg/kg, 3-4 hr): 87% | Bile volume secreted after administration ([1]; 110 mg/kg, 4-5 hr): 74% | Bile volume secreted after administration ([1]; 330 mg/kg, 0-1 hr): 147% | Bile volume secreted after administration ([1]; 330 mg/kg, 1-2 hr): 139% | Bile volume secreted after administration ([1]; 330 mg/kg, 2-3 hr): 118% | Bile volume secreted after administration ([1]; 330 mg/kg, 3-4 hr): 104% | Bile volume secreted after administration ([1]; 330 mg/kg, 4-5 hr): 86% | Bile volume secreted after administration ([1]; 990 mg/kg, 0-1 hr): 176% | Bile volume secreted after administration ([1]; 990 mg/kg, 1-2 hr): 174% | Bile volume secreted after administration ([1]; 990 mg/kg, 2-3 hr): 153% | Bile volume secreted after administration ([1]; 990 mg/kg, 3-4 hr): 130% | Bile volume secreted after administration ([1]; 990 mg/kg, 4-5 hr): 120% | Bile volume secreted after administration ([2]; 330 mg/kg, 0-1 hr): 322% | Bile volume secreted after administration ([2]; 330 mg/kg, 1-2 hr): 497% | Bile volume secreted after administration ([2]; 330 mg/kg, 2-3 hr): 472% | Bile volume secreted after administration ([2]; 330 mg/kg, 3-4 hr): 402% | Bile volume secreted after administration ([2]; 330 mg/kg, 4-5 hr): 367% | Bile volume secreted after administration ([2]; 330 mg/kg, 5-6 hr): 324% | Volume of bile secreted relative to one hour before administration ([2]; 330 mg/kg, first hour): 3.2 times | Volume of bile secreted relative to one hour before administration ([2]; 330 mg/kg, second hour): 5.0 times | Volume of bile secreted relative to one hour before administration ([2]; 330 mg/kg, third hour): 4.7 times | LD50 at 72 h [3]: > 4000 mg/kg

C=C(C)C1CC=C(C)CC1 (stereo not drawn) [p-Mentha-1,8-diene, p-mentha-1,8-diene]
Bile volume secreted after administration ([1]; 80 mg/kg, 0-1 hr): 101% | Bile volume secreted after administration ([1]; 80 mg/kg, 1-2 hr): 100% | Bile volume secreted after administration ([1]; 80 mg/kg, 2-3 hr): 100% | Bile volume secreted after administration ([1]; 80 mg/kg, 3-4 hr): 94% | Bile volume secreted after administration ([1]; 80 mg/kg, 4-5 hr): 91% | Bile volume secreted after administration ([1]; 250 mg/kg, 0-1 hr): 104% | Bile volume secreted after administration ([1]; 250 mg/kg, 1-2 hr): 108% | Bile volume secreted after administration ([1]; 250 mg/kg, 2-3 hr): 109% | Bile volume secreted after administration ([1]; 250 mg/kg, 3-4 hr): 108% | Bile volume secreted after administration ([1]; 250 mg/kg, 4-5 hr): 104% | Bile volume secreted after administration ([1]; 750 mg/kg, 0-1 hr): 111% | Bile volume secreted after administration ([1]; 750 mg/kg, 1-2 hr): 125% | Bile volume secreted after administration ([1]; 750 mg/kg, 2-3 hr): 128% | Bile volume secreted after administration ([1]; 750 mg/kg, 3-4 hr): 131% | Bile volume secreted after administration ([1]; 750 mg/kg, 4-5 hr): 128% | Bile volume secreted after administration ([2]; 250 mg/kg, 0-1 hr): 220% | Bile volume secreted after administration ([2]; 250 mg/kg, 1-2 hr): 213% | Bile volume secreted after administration ([2]; 250 mg/kg, 2-3 hr): 185% | Bile volume secreted after administration ([2]; 250 mg/kg, 3-4 hr): 110% | Bile volume secreted after administration ([2]; 250 mg/kg, 4-5 hr): 85%
